Measured values published in publication PMC12892976, “Alkylation-based optimization of antifungal FPPS inhibitors yields a potent, broad-spectrum lipophilic zoledronate derivative” (mBio, 2025).
Values after ≈ are worked out from the molar mass of the structure shown. Where two headings read alike, the source gives them in different places.

Tests used:
Candida albicans [1] = experiment: MIC/MFC broth microdilution (CLSI); type: cell-based; conditions: Candida albicans SC5314
Protocol: (§1) Antifungal susceptibility was determined by broth microdilution according to the CLSI guidelines described in M27-Ed4 ([16]). […] MFC was determined by back-plating drug-treated cultures from MIC broths onto SDA plates. The MFC was defined as the lowest concentration from which no colonies could be cultured.

Trichophyton rubrum [2] = experiment: checkerboard drug interaction (FICI, MICc);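 further: simplified diagonal checkerboard screen pairing azole antifungals with FPPS inhibitors, FICI calculated under the Loewe additivity model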; type: cell-based; conditions: T. rubrum
Protocol: (§2) Drug interactions between antifungals and FPPS inhibitors were investigated using a simplified checkerboard diagonal screening method ([45]). […] FICIs were determined according to the Loewe additivity model ([17]).

Cryptococcus neoformans [3] = experiment: MIC/MFC broth microdilution (CLSI); conditions: Cryptococcus neoformans;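 further: susceptibility testing followed the CLSI M27-Ed4 broth microdilution document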
Protocol: as §1

HEK-293T cells = experiment: MTT reduction cytotoxicity assay; type: cell-based; conditions: Homo sapiens, HEK-293T, 72 h, MTT, 72 h
Candida glabrata [4] = experiment: MIC/MFC broth microdilution (CLSI); conditions: Nakaseomyces glabratus, CBS138;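 further: broth microdilution following CLSI M27-Ed4, MFC taken as the lowest drug level yielding no growth once MIC wells were subcultured on SDA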
Protocol: as §1

Cryptococcus neoformans [5] = experiment: checkerboard drug interaction (FICI, MICc);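 on all read-outs here: antifungal plus FPPS inhibitor pairs tested against Cryptococcus neoformans by simplified diagonal checkerboard screening, FICI computed under the Loewe additivity model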; type: cell-based; conditions: C. neoformans; for INH FD (MIC-MICc fold decrease): fold decrease of inhibitor MIC
Protocol: as §2

Candida glabrata [6] = experiment: checkerboard drug interaction (FICI, MICc);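 on all read-outs here: simplified diagonal checkerboard screen pairing antifungals with FPPS inhibitors, FICI calculated under the Loewe additivity model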; type: cell-based; conditions: C. glabrata; for INH FD (MIC-MICc fold decrease): fold decrease of inhibitor MIC
Protocol: as §2

eight fungal species [7] = experiment: MIC/MFC summary across the eight fungal species of Table 1; type: cell-based
Protocol: The antifungal activity of these compounds was evaluated according to CLSI guidelines ([16]).

Saccharomyces cerevisiae [8] = experiment: MIC/MFC broth microdilution (CLSI); type: cell-based; conditions: Saccharomyces cerevisiae S288c
Protocol: as §1

Candida albicans [9] = experiment: checkerboard drug interaction (FICI, MICc);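 on all read-outs here: antifungal plus FPPS inhibitor combinations on Candida albicans tested by a simplified diagonal checkerboard screen, with FICI calculated under the Loewe additivity model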; type: cell-based; conditions: C. albicans; for INH FD (MIC-MICc fold decrease): fold decrease of inhibitor MIC
Protocol: as §2

Trichophyton rubrum [10] = experiment: MIC/MFC broth microdilution (CLSI); conditions: Trichophyton rubrum
Protocol: as §1

Saccharomyces cerevisiae [11] = experiment: checkerboard drug interaction (FICI, MICc); type: cell-based; set-up: INH MICc / INH MICc (ITR:INH) / INH MICc (KET:INH) / INH MICc (FLC:INH): unit not given beside the values;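 further: simplified diagonal checkerboard screen pairing antifungals with FPPS inhibitors, FICI calculated under the Loewe additivity model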
eight fungal species [12] = experiment: checkerboard interaction with azoles, summary across the eight species; type: cell-based
From the text: Synergy between lipophilic FPPS inhibitors and azole antifungals was investigated by determining the fractional inhibitory concentration index (FICI) (Fig. 2; Table S1 Fig. S1) ([17]). […]. Derivatives PLA9 and 11, and PDA9, 11, and 12 antagonized azoles in C. albicans, C. neoformans, and C. deuterogattii, yet were largely synergistic in C. glabrata and S. cerevisiae. […].

Aspergillus fumigatus [13] = experiment: MIC/MFC broth microdilution (CLSI); conditions: ATCC204305
Protocol: as §1

Aspergillus flavus [14] = experiment: checkerboard drug interaction (FICI, MICc);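 further: simplified diagonal checkerboard screen pairing azole antifungals with FPPS inhibitors, FICI calculated under the Loewe additivity model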; type: cell-based; set-up: INH MICc (KET:INH) / INH MICc (FLC:INH): unit not given beside the values; conditions: A. flavus
[15] = system: Cryptococcus deuterogattii; experiment: checkerboard drug interaction (FICI, MICc);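 on all read-outs here: simplified diagonal checkerboard screen pairing antifungal drugs with FPPS inhibitors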; type: cell-based; conditions: C. deuterogattii; for INH FD (MIC-MICc fold decrease): fold decrease of inhibitor MIC
Protocol: as §2

Aspergillus fumigatus [16] = experiment: checkerboard drug interaction (FICI, MICc); type: cell-based;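 further: simplified diagonal checkerboard screen pairing antifungals with FPPS inhibitors against Aspergillus fumigatus, with FICI calculated under the Loewe additivity model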
Protocol: as §2

[17] = system: Cryptococcus deuterogattii; experiment: MIC/MFC broth microdilution (CLSI); conditions: Cryptococcus deuterogattii;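 further: broth microdilution per CLSI M27-Ed4. MFC is the lowest concentration yielding no colonies when MIC broths are subcultured onto SDA plates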
Protocol: as §1

Aspergillus flavus [18] = experiment: MIC/MFC broth microdilution (CLSI); conditions: ATCC204304
Protocol: as §1

[19] = Fractional Inhibitory Concentration Index, fluconazole + inhibitor
[20] = Fractional Inhibitory Concentration Index, itraconazole + inhibitor
[21] = Fractional Inhibitory Concentration Index, ketoconazole + inhibitor
[22] = MIC of the inhibitor in combination with fluconazole
[23] = MIC of the inhibitor in combination with itraconazole
[24] = MIC of the inhibitor in combination with ketoconazole
[25] = MIC-MICc fold decrease of fluconazole, negative = increase
[26] = MIC-MICc fold decrease of itraconazole, negative = increase
[27] = MIC-MICc fold decrease of ketoconazole, negative = increase
[28] = MIC-MICc fold decrease of the inhibitor, with fluconazole
[29] = MIC-MICc fold decrease of the inhibitor, with itraconazole
[30] = MIC-MICc fold decrease of the inhibitor, with ketoconazole
[31] = FLC:INH combination, MIC of the inhibitor in combination with FLC
[32] = FLC:INH combination, fold decrease of FLC MIC
[33] = ITR:INH combination, MIC of the inhibitor in combination with ITR
[34] = ITR:INH combination, fold decrease of ITR MIC
[35] = KET:INH combination, MIC of the inhibitor in combination with KET
[36] = KET:INH combination, fold decrease of KET MIC

CCCCCCCCCCCN1CCC[C@H]1C(=O)N[C@@H](CC(=O)OC)C(=O)OC [dmPLA11]
MFC (Candida albicans [1]): 32 mg/L (≈ 77.6 µM) | MIC (Candida albicans [1]): 32 mg/L (≈ 77.6 µM) | FICI (FLC:INH) (Trichophyton rubrum [2]; [19]): 2.25 | FICI (ITR:INH) (Trichophyton rubrum [2]; [20]): 2.13 | FICI (KET:INH) (Trichophyton rubrum [2]; [21]): 2.25 | INH MICc (FLC:INH) (Trichophyton rubrum [2]; [22]): 32 | INH MICc (ITR:INH) (Trichophyton rubrum [2]; [23]): 32 | INH MICc (KET:INH) (Trichophyton rubrum [2]; [24]): 32 | FLC FD (FLC:INH) (Trichophyton rubrum [2]; [25]): 4 | ITR FD (ITR:INH) (Trichophyton rubrum [2]; [26]): 8 | KET FD (KET:INH) (Trichophyton rubrum [2]; [27]): 4 | INH FD (FLC:INH) (Trichophyton rubrum [2]; [28]): -2 | INH FD (ITR:INH) (Trichophyton rubrum [2]; [29]): -2 | INH FD (KET:INH) (Trichophyton rubrum [2]; [30]): -2 | MFC (Cryptococcus neoformans [3]): 64 mg/L (≈ 155 µM) | MIC (Cryptococcus neoformans [3]): 16 mg/L (≈ 38.8 µM) | IC50 (HEK-293T cells; HEK-293T cells, read-out: IC50): 9.09 mg/L (≈ 22 µM) | IC50 (HEK-293T cells; read-out: HEK IC50): 9.09 mg/L (≈ 22 µM) | MFC (Candida glabrata [4]): 64 mg/L (≈ 155 µM) | MIC (Candida glabrata [4]): 32 mg/L (≈ 77.6 µM) | FICI (Cryptococcus neoformans [5]; FLC:INH combination): 1.5 | INH MICc (Cryptococcus neoformans [5]; [31]): 32 | FLC FD (MIC-MICc fold decrease) (Cryptococcus neoformans [5]; [32]): 1 | INH FD (MIC-MICc fold decrease) (Cryptococcus neoformans [5]; FLC:INH combination): 2 | FICI (Cryptococcus neoformans [5]; ITR:INH combination): 1.5 | INH MICc (Cryptococcus neoformans [5]; [33]): 32 | ITR FD (MIC-MICc fold decrease) (Cryptococcus neoformans [5]; [34]): 1 | INH FD (MIC-MICc fold decrease) (Cryptococcus neoformans [5]; ITR:INH combination): 2 | FICI (Cryptococcus neoformans [5]; KET:INH combination): 1.5 | INH MICc (Cryptococcus neoformans [5]; [35]): 32 | KET FD (MIC-MICc fold decrease) (Cryptococcus neoformans [5]; [36]): 1 | INH FD (MIC-MICc fold decrease) (Cryptococcus neoformans [5]; KET:INH combination): 2 | FICI (Candida glabrata [6]; FLC:INH combination): 3 | INH MICc (Candida glabrata [6]; [31]): 16 | FLC FD (MIC-MICc fold decrease) (Candida glabrata [6]; [32]): 1 | INH FD (MIC-MICc fold decrease) (Candida glabrata [6]; FLC:INH combination): 1 | FICI (Candida glabrata [6]; ITR:INH combination): 1 | INH MICc (Candida glabrata [6]; [33]): 4 | ITR FD (MIC-MICc fold decrease) (Candida glabrata [6]; [34]): 2 | INH FD (MIC-MICc fold decrease) (Candida glabrata [6]; ITR:INH combination): 4 | FICI (Candida glabrata [6]; KET:INH combination): 1 | INH MICc (Candida glabrata [6]; [35]): 4 | KET FD (MIC-MICc fold decrease) (Candida glabrata [6]; [36]): 2 | INH FD (MIC-MICc fold decrease) (Candida glabrata [6]; KET:INH combination): 4 | MFC (eight fungal species [7]; across eight species, read-out: Geometric mean MFC): 83 mg/L (≈ 201 µM) | MIC (eight fungal species [7]; geometric mean across eight species, read-out: GM fungal MIC): 29.3 mg/L (≈ 71 µM) | MIC (eight fungal species [7]; read-out: Geometric mean MIC): 29.3 mg/L (≈ 71 µM) | MFC (Saccharomyces cerevisiae [8]): 8 mg/L (≈ 19.4 µM) | MIC (Saccharomyces cerevisiae [8]): 8 mg/L (≈ 19.4 µM) | FICI (Candida albicans [9]; FLC:INH combination): 1.25 | INH MICc (Candida albicans [9]; [31]): 8 | FLC FD (MIC-MICc fold decrease) (Candida albicans [9]; [32]): 1 | INH FD (MIC-MICc fold decrease) (Candida albicans [9]; FLC:INH combination): 4 | FICI (Candida albicans [9]; ITR:INH combination): 1.25 | INH MICc (Candida albicans [9]; [33]): 8 | ITR FD (MIC-MICc fold decrease) (Candida albicans [9]; [34]): 1 | INH FD (MIC-MICc fold decrease) (Candida albicans [9]; ITR:INH combination): 4 | FICI (Candida albicans [9]; KET:INH combination): 1.25 | INH MICc (Candida albicans [9]; [35]): 8 | KET FD (MIC-MICc fold decrease) (Candida albicans [9]; [36]): 1 | INH FD (MIC-MICc fold decrease) (Candida albicans [9]; KET:INH combination): 4 | MFC (Trichophyton rubrum [10]): > 128 mg/L | MIC (Trichophyton rubrum [10]): 16 mg/L (≈ 38.8 µM) | FICI (FLC:INH) (Saccharomyces cerevisiae [11]; [19]): 1 | FICI (ITR:INH) (Saccharomyces cerevisiae [11]; [20]): 2.25 | FICI (KET:INH) (Saccharomyces cerevisiae [11]; [21]): 1 | INH MICc (FLC:INH) (Saccharomyces cerevisiae [11]; [22]): 4 | INH MICc (ITR:INH) (Saccharomyces cerevisiae [11]; [23]): 2 | INH MICc (KET:INH) (Saccharomyces cerevisiae [11]; [24]): 4 | FLC FD (FLC:INH) (Saccharomyces cerevisiae [11]; [25]): 2 | ITR FD (ITR:INH) (Saccharomyces cerevisiae [11]; [26]): -2 | KET FD (KET:INH) (Saccharomyces cerevisiae [11]; [27]): 2 | INH FD (FLC:INH) (Saccharomyces cerevisiae [11]; [28]): 2 | INH FD (ITR:INH) (Saccharomyces cerevisiae [11]; [29]): 4 | INH FD (KET:INH) (Saccharomyces cerevisiae [11]; [30]): 2 | antagonism with azole drugs (eight fungal species [12]; any of the azole drugs in any species tested): no antagonism | GM fungal MICc (eight fungal species [12]; geometric mean MIC in combination with azoles): 18 | MFC (Aspergillus fumigatus [13]): > 128 mg/L | MIC (Aspergillus fumigatus [13]): 128 mg/L (≈ 310 µM) | FICI (FLC:INH) (Aspergillus flavus [14]; [19]): 2 | FICI (ITR:INH) (Aspergillus flavus [14]; [20]): 1.25 | FICI (KET:INH) (Aspergillus flavus [14]; [21]): 0.75 | INH MICc (FLC:INH) (Aspergillus flavus [14]; [22]): 256 | INH MICc (ITR:INH) (Aspergillus flavus [14]; [23]): 64 | INH MICc (KET:INH) (Aspergillus flavus [14]; [24]): 64 | FLC FD (FLC:INH) (Aspergillus flavus [14]; [25]): 1 | ITR FD (ITR:INH) (Aspergillus flavus [14]; [26]): 1 | KET FD (KET:INH) (Aspergillus flavus [14]; [27]): 2 | INH FD (FLC:INH) (Aspergillus flavus [14]; [28]): 1 | INH FD (ITR:INH) (Aspergillus flavus [14]; [29]): 4 | INH FD (KET:INH) (Aspergillus flavus [14]; [30]): 4 | FICI ([15]; FLC:INH combination): 1.5 | INH MICc [15, 31]: 32 | FLC FD (MIC-MICc fold decrease) [15, 32]: 2 | INH FD (MIC-MICc fold decrease) ([15]; FLC:INH combination): 1 | FICI ([15]; ITR:INH combination): 2 | INH MICc [15, 33]: 32 | ITR FD (MIC-MICc fold decrease) [15, 34]: 1 | INH FD (MIC-MICc fold decrease) ([15]; ITR:INH combination): 1 | FICI ([15]; KET:INH combination): 1.13 | INH MICc [15, 35]: 32 | KET FD (MIC-MICc fold decrease) [15, 36]: 8 | INH FD (MIC-MICc fold decrease) ([15]; KET:INH combination): 1 | FICI (FLC:INH) (Aspergillus fumigatus [16]; [19]): 1.25 | FICI (ITR:INH) (Aspergillus fumigatus [16]; [20]): 0.53 | FICI (KET:INH) (Aspergillus fumigatus [16]; [21]): 1.5 | INH MICc (FLC:INH) (Aspergillus fumigatus [16]; [22]): 64 | INH MICc (ITR:INH) (Aspergillus fumigatus [16]; [23]): 2 | INH MICc (KET:INH) (Aspergillus fumigatus [16]; [24]): 64 | FLC FD (FLC:INH) (Aspergillus fumigatus [16]; [25]): 4 | ITR FD (ITR:INH) (Aspergillus fumigatus [16]; [26]): 2 | KET FD (KET:INH) (Aspergillus fumigatus [16]; [27]): 2 | INH FD (FLC:INH) (Aspergillus fumigatus [16]; [28]): 1 | INH FD (ITR:INH) (Aspergillus fumigatus [16]; [29]): 32 | INH FD (KET:INH) (Aspergillus fumigatus [16]; [30]): 1 | MFC [17]: 128 mg/L (≈ 310 µM) | MIC [17]: 8 mg/L (≈ 19.4 µM) | MFC (Aspergillus flavus [18]): > 128 mg/L | MIC (Aspergillus flavus [18]): > 128 mg/L
